pEC50: −log10 of the molar value. Like-named read-outs stand apart in the source and are kept apart here. Starred links: 1 amine or outer side, 2 acyl side, 3 side chain; linkers in the order of their positions; H or OH if unused. Non-standard residues stand in square brackets, D forms with d. Residues, ends and D or L forms follow the SMILES beside them. ξ: configuration not given here. *: point of attachment. dNMe2Nal = CN[C@H](Cc1ccc2ccccc2c1)C(=O)O; dPhe(4-Cl) = N[C@H](Cc1ccc(Cl)cc1)C(=O)O; 2Nal = N[C@@H](Cc1ccc2ccccc2c1)C(=O)O; d2Nal = N[C@H](Cc1ccc2ccccc2c1)C(=O)O; ξNMe2Nal = CNC(Cc1ccc2ccccc2c1)C(=O)O; β3hAib = CC(C)(CC(=O)[*:2])N[*:1]; ξ2Nal = NC(Cc1ccc2ccccc2c1)C(=O)O; NMeF = CN[C@@H](Cc1ccccc1)C(=O)O; NMeGABA = CN(CCCC(=O)[*:2])[*:1]; Isonicotinoyl = O=C(c1ccncc1)*; Morpholide = C1CN(*)CCO1; Inp = O=C(O)C1CCNCC1; ξK = NCCCCC(N)C(=O)O
Columns and labels:
[1] = target: rat pituitary cells (Rattus norvegicus, UniProt O08725); conditions: GH release, 15 min incubation
In short: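 Primary rat anterior pituitary cells, cultured three days in DME low glucose/10% FBS, were washed, pre-incubated twice for 15 min, then challenged 15 min with test compounds (DMSO ≤0.1%) at 37 °C. Released GH was measured by two-site ELISA; EC50 came from 4-parameter fits, mean of three to four independent determinations.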

[2] = system: growth hormone secretion; assay: GHRP induced growth hormone secretion, intravenous administration (Rat IV); assay type: in vivo; conditions: serum GH 10 min after injection; for RAT IV ED50: iv injection
In short: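 Female Sprague Dawley rats (24-30 days, 50-90 g) under intraperitoneal pentobarbitone received graded intravenous tail-vein peptide doses in pH 5.0 sodium acetate/mannitol buffer 20 min post-anaesthesia. Blood by cardiac puncture 10 min after dosing; serum GH measured by rat GH ELISA in duplicate.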

[3] = read-out: PIT Cell EC50, Table V, formula II compounds
[4] = read-out: PIT Cell EC50, Table III, formula IV compounds
[5] = read-out: PIT Cell EC50, Table IV, formula III compounds

Chain of rat pituitary cells (O08725 whole entry): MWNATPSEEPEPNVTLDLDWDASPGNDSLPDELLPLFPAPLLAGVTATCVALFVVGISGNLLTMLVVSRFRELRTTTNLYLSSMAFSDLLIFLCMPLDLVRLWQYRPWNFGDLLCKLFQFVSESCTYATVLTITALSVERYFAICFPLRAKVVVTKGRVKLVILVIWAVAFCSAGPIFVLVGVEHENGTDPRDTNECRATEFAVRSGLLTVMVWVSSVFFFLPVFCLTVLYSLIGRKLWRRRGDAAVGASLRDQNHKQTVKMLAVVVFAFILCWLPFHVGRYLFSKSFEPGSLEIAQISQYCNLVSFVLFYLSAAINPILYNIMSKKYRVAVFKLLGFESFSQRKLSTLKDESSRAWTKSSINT

CN(C(=O)[C@@H](Cc1ccc2ccccc2c1)NC(=O)C1CCNCC1)[C@@H](CO)Cc1ccc2ccccc2c1 [(inip) b nbol, (inip)-DβNal-(N-Methyl-D-β-naphthylalanol)]
pEC50 [1, 3]: 8.52
RAT IV ED50 ([2]; Table V): 20 µg

CN(C(=O)C(Cc1ccc2ccccc2c1)NC(=O)C1CCNCC1)[C@H](Cc1ccc2ccccc2c1)C(=O)N[C@@H](Cc1ccccc1)C(=O)NC(CCCCN)C(N)=O (stereo partly drawn) [(inip) b nmb F K amide, (inip)-DβNal-(N-Me-DβNal)-Phe-Lys-amide] (H-[Inp][ξ2Nal][dNMe2Nal]F[ξK]-NH2)
pEC50 [1, 4]: 9.70
RAT IV ED50 ([2]; Table III): 1 µg

CN(C(=O)[C@@H](Cc1ccc2ccccc2c1)NC(=O)C1CCNCC1)[C@H](Cc1ccc2ccccc2c1)C(=O)N[C@@H](Cc1ccccc1)C(N)=O [(inip) b nmb F amide] (H-[Inp][d2Nal][dNMe2Nal]F-NH2)
pEC50 [1, 5]: 9.00
RAT IV ED50 ([2]; Table IV): 5 µg

CN(C(=O)[C@@H](Cc1ccc2ccccc2c1)NC(=O)C1CCNCC1)[C@H](Cc1ccc2ccccc2c1)C(=O)NC1CCNCC1 [(inip) b nmb api, (inip)-DβNal-(N-Me-DβNal)-N-(4-piperidinyl) amide]
pEC50 [1, 5]: 9.30
RAT IV ED50 ([2]; Table IV): 2 µg

O=C(N[C@H](Cc1ccc2ccccc2c1)C(=O)NCCc1ccc2ccccc2c1)C1CCNCC1 [(inip) b npe, (inip)-DβNal-[N-1-{2-(2-naphthyl)ethyl}] amide]
pEC50 [1, 3]: 7.96
RAT IV ED50 ([2]; Table V): 500 µg

O=C(N[C@H](Cc1ccc2ccccc2c1)C(=O)NCCc1c[nH]c2ccccc12)C1CCNCC1 [(inip) b tra, (inip)-DβNal-[N-tryptaminyl] amide]
pEC50 [1, 3]: 7.00
RAT IV ED50 ([2]; Table V): 100 µg

NC(=O)[C@H](Cc1ccccc1)NC(=O)[C@@H](Cc1c[nH]c2ccccc12)NC(=O)[C@@H](Cc1ccc2ccccc2c1)NC(=O)C1CCNCC1 [(inip) b w F amide, (inip)-DβNal-(D-Trp)-Phe-amide] (H-[Inp][d2Nal][dW]F-NH2)
pEC50 [1, 5]: 10.00
RAT IV ED50 ([2]; Table IV): 0.67 µg

CN(C(=O)[C@@H](Cc1ccc2ccccc2c1)NC(=O)[C@@H](Cc1ccc2ccccc2c1)NC(=O)C1CCNCC1)[C@@H](Cc1ccccc1)C(N)=O [(inip) bb nmF amide] (H-[Inp][d2Nal][d2Nal][NMeF]-NH2)
pEC50 [1, 5]: 9.22
RAT IV ED50 ([2]; Table IV): 5 µg

NC(=O)[C@H](Cc1ccccc1)NC(=O)[C@@H](Cc1ccc2ccccc2c1)NC(=O)[C@@H](Cc1ccc(Cl)cc1)NC(=O)C1CCNCC1 [(inip) chf b F amide] (H-[Inp][dPhe(4-Cl)][d2Nal]F-NH2)
pEC50 [1, 5]: 8.66
RAT IV ED50 ([2]; Table IV): 10 µg

CN(C(=O)C1CCNCC1)[C@H](Cc1ccc2ccccc2c1)C(=O)N[C@@H](Cc1ccc2ccccc2c1)C(=O)N[C@@H](Cc1ccccc1)C(=O)O [(inip) nmb B F acid] (H-[Inp][dNMe2Nal][2Nal]F-OH)
pEC50 [1, 5]: 8.15
RAT IV ED50 ([2]; Table IV): 100 µg

CN(C(=O)C1CCNCC1)C(Cc1ccc2ccccc2c1)C(=O)N[C@H](Cc1ccc2ccccc2c1)C(=O)N[C@@H](Cc1ccccc1)C(=O)NC(CCCCN)C(N)=O (stereo partly drawn) [(inip) nmb b F K amide, (inip)-(N-Me-DβNal)-DβNal-Phe-Lys-amide] (H-[Inp][ξNMe2Nal][d2Nal]F[ξK]-NH2)
pEC50 [1, 4]: 9.57
RAT IV ED50 ([2]; Table III): 0.4 µg

COC(=O)[C@H](Cc1ccccc1)NC(=O)[C@@H](Cc1ccc2ccccc2c1)NC(=O)[C@@H](Cc1ccc2ccccc2c1)N(C)C(=O)C1CCNCC1 [(inip) nmb b F Me ester] (H-[Inp][dNMe2Nal][d2Nal]F-OMe)
pEC50 [1, 5]: 8.85
RAT IV ED50 ([2]; Table IV): 10 µg

CN(C(=O)C1CCNCC1)[C@H](Cc1ccc2ccccc2c1)C(=O)N[C@H](Cc1ccc2ccccc2c1)C(=O)N[C@@H](Cc1ccccc1)C(=O)O [(inip) nmb b F acid] (H-[Inp][dNMe2Nal][d2Nal]F-OH)
pEC50 [1, 5]: 8.85
RAT IV ED50 ([2]; Table IV): 5 µg

CN(C(=O)C1CCNCC1)[C@H](Cc1ccc2ccccc2c1)C(=O)N[C@H](Cc1ccc2ccccc2c1)C(=O)N[C@@H](Cc1ccccc1)C(N)=O [(inip) nmb b F amide] (H-[Inp][dNMe2Nal][d2Nal]F-NH2)
pEC50 [1, 5]: 9.30
RAT IV ED50 ([2]; Table IV): 5 µg

CN(C(=O)C1CCNCC1)[C@H](Cc1ccc2ccccc2c1)C(=O)N[C@H](Cc1ccc2ccccc2c1)C(=O)N[C@@H](Cc1ccccc1)C(=O)N1CCOCC1 [(inip) nmb b F mor] (H-[Inp][dNMe2Nal][d2Nal]F-Morpholide)
pEC50 [1, 4]: 9.10
RAT IV ED50 ([2]; Table III): 10 µg

CN(C(=O)C1CCNCC1)C(Cc1ccc2ccccc2c1)C(=O)N[C@H](Cc1c[nH]c2ccccc12)C(=O)N[C@@H](Cc1ccccc1)C(=O)NC(CCCCN)C(N)=O (stereo partly drawn) [(inip) nmb w F K amide, (inip)-(N-Me-DβNal)-DTrp-Phe-Lys-amide] (H-[Inp][ξNMe2Nal][dW]F[ξK]-NH2)
pEC50 [1, 4]: 9.70
RAT IV ED50 ([2]; Table III): 0.2 µg

NC(=O)[C@H](Cc1ccccc1)NC(=O)[C@@H](Cc1c[nH]c2ccccc12)NC(=O)[C@@H](Cc1c[nH]c2ccccc12)NC(=O)C1CCNCC1 [(inip) w w F amide] (H-[Inp][dW][dW]F-NH2)
pEC50 [1, 5]: 9.05
RAT IV ED50 ([2]; Table IV): 5 µg

O=C(N[C@H](Cc1c[nH]c2ccccc12)C(=O)N[C@@H](CO)Cc1c[nH]c2ccccc12)C1CCNCC1 [(inip) w wol]
pEC50 [1, 3]: 8.40
RAT IV ED50 ([2]; Table V): 20 µg

CNCCCC(=O)NC(Cc1ccc2ccccc2c1)C(=O)N[C@H](Cc1ccc2ccccc2c1)C(=O)N[C@@H](Cc1ccccc1)C(=O)NC(CCCCN)C(N)=O (stereo partly drawn) [(mab) b b F K amide, [4-(N-methylamino)butanoyl]-DβNal-DβNal-Phe-Lys-amide] (NMeGABA-[ξ2Nal][d2Nal]F[ξK]-NH2)
pEC50 [1, 4]: 8.85
RAT IV ED50 ([2]; Table III): 0.7 µg

CC(C)(N)CC(=O)N[C@H](Cc1ccc2ccccc2c1)C(=O)N[C@H](Cc1ccc2ccccc2c1)C(=O)N[C@@H](Cc1ccccc1)C(=O)N[C@@H](CCCCN)C(N)=O [(nba) b b F K amide] (β3hAib-[d2Nal][d2Nal]FK-NH2)
pEC50 [1, 4]: 8.55
RAT IV ED50 ([2]; Table III): 100 µg

NCCCC[C@H](NC(=O)[C@H](Cc1ccccc1)NC(=O)[C@@H](Cc1ccc2ccccc2c1)NC(=O)[C@@H](Cc1ccc2ccccc2c1)NC(=O)c1ccncc1)C(N)=O [(pyc) b b F K amide] (Isonicotinoyl-[d2Nal][d2Nal]FK-NH2)
pEC50 [1, 4]: < 6.52
RAT IV ED50 ([2]; Table III): 200 µg

C[C@H](N)C(=O)N[C@H](Cc1ccc2ccccc2c1)C(=O)N[C@H](Cc1ccc2ccccc2c1)C(=O)N[C@@H](Cc1ccccc1)C(=O)N[C@@H](CCCCN)C(N)=O [A b b F K amide] (H-A[d2Nal][d2Nal]FK-NH2)
pEC50 [1, 4]: 8.68
RAT IV ED50 ([2]; Table III): 10 µg

CC(=O)N[C@H](Cc1ccc2ccccc2c1)C(=O)N[C@@H](Cc1ccc2ccccc2c1)C(=O)N[C@@H](Cc1ccc2ccccc2c1)C(=O)NCCCN [Ac b B B ram, Acetyl-DβNal-βNal-βNal-[N-(3-aminopropyl)] amide]
pEC50 ([1]; read-out: PIT Cell EC50, Table VI, retroinverso compounds of formula V): 8.32
RAT IV ED50 ([2]; Table VI): 100 µg

NCCCC[C@H](NC(=O)[C@H](Cc1ccccc1)NC(=O)[C@@H](Cc1ccc2ccccc2c1)NC(=O)[C@@H](Cc1ccc2ccccc2c1)NC(=O)CN)C(N)=O [G b b F K amide] (H-G[d2Nal][d2Nal]FK-NH2)
pEC50 [1, 4]: 7.83
RAT IV ED50 ([2]; Table III): 100 µg

NCCCC[C@H](NC(=O)[C@H](Cc1ccccc1)NC(=O)[C@@H](Cc1c[nH]c2ccccc12)NC(=O)[C@@H](Cc1ccc2ccccc2c1)NC(=O)CN)C(N)=O [G b w F K amide] (H-G[d2Nal][dW]FK-NH2)
pEC50 [1, 4]: 9.10
RAT IV ED50 ([2]; Table III): 4.8 µg

NCCCC[C@H](NC(=O)[C@H](Cc1ccccc1)NC(=O)[C@@H](Cc1c[nH]c2ccccc12)NC(=O)[C@@H](Cc1c[nH]c2ccccc12)NC(=O)CN)C(N)=O [G w w F K amide] (H-G[dW][dW]FK-NH2)
pEC50 [1, 4]: 8.68
RAT IV ED50 ([2]; Table III): 2.5 µg

C[C@H](NC(=O)[C@@H](Cc1ccc2ccccc2c1)NC(=O)[C@@H](C)N)C(=O)N[C@@H](Cc1c[nH]c2ccccc12)C(=O)N[C@H](Cc1ccccc1)C(=O)N[C@@H](CCCCN)C(N)=O [GHRP 2, D Ala-D βNal-Ala-Trp-D Phe-Lys-NH2, reference compound] (H-[dA][d2Nal]AW[dF]K-NH2)
pEC50 ([1]; read-out: “Pit” Cell EC50, Table II, prior art compounds): 9.00
Rat IV ED50 ([2]; Table II, iv tail vein injection, anesthetized weanling female rats): 0.35 µg

NCCCC[C@H](NC(=O)[C@H](Cc1ccccc1)NC(=O)[C@@H](Cc1ccc2ccccc2c1)NC(=O)[C@@H](Cc1ccc2ccccc2c1)NC(=O)[C@@H](N)Cc1c[nH]cn1)C(N)=O [H b b F K amide] (H-H[d2Nal][d2Nal]FK-NH2)
pEC50 [1, 4]: 8.62
RAT IV ED50 ([2]; Table III): 15.4 µg

NCCCC[C@H](NC(=O)[C@H](Cc1ccccc1)NC(=O)[C@@H](Cc1c[nH]c2ccccc12)NC(=O)[C@@H](Cc1ccc2ccccc2c1)NC(=O)[C@@H](N)Cc1c[nH]cn1)C(N)=O [H b w F K amide] (H-H[d2Nal][dW]FK-NH2)
pEC50 [1, 4]: 8.17
RAT IV ED50 ([2]; Table III): 4.2 µg

NCCCC[C@H](NC(=O)[C@H](Cc1ccccc1)NC(=O)[C@@H](Cc1ccc2ccccc2c1)NC(=O)[C@@H](Cc1c[nH]c2ccccc12)NC(=O)[C@@H](N)Cc1c[nH]cn1)C(N)=O [H w b F K amide] (H-H[dW][d2Nal]FK-NH2)
pEC50 [1, 4]: 7.82
RAT IV ED50 ([2]; Table III): 50 µg

NCCCC[C@H](NC(=O)[C@H](Cc1ccccc1)NC(=O)[C@@H](Cc1c[nH]c2ccccc12)NC(=O)[C@@H](Cc1c[nH]c2ccccc12)NC(=O)[C@@H](N)Cc1c[nH]cn1)C(N)=O [H w w F K amide] (H-H[dW][dW]FK-NH2)
pEC50 [1, 4]: 7.59
RAT IV ED50 ([2]; Table III): 50 µg

— patent publication US7094869B2, “Low molecular weight peptidomimetic growth hormone secretagogues” (Genentech, Inc., priority 1994, dated 2006)
